According to US7157481B2 (priority 1997, dated 2007):

What was measured:
[1] = log P determination by HPLC (EEC Directive 79/831 Annex V. A8, gradient method); format: physicochemical; conditions: acetonitrile/0.1% aqueous phosphoric acid
[2] = system: caterpillars of the diamond-back moth (Plutella xylostella); test: Plutella Test; format: in vivo; conditions: cabbage leaves dipped, 0.1 % by weight active compound; after 7 days
Experimental: (§1) To produce a suitable preparation of active compound, 1 part by weight of active compound is mixed with the stated amounts of solvent and emulsifier, and the concentrate is diluted with water to the desired concentration.
Cabbage leaves (Brassica oleracea) are treated by being dipped into the preparation of active compound of the desired concentration and populated with caterpillars of the diamond-back moth (Plutella xylostella) while the leaves are still moist.
After 7 days, the kill is determined and expressed in per cent. An efficacy of 100% means that all caterpillars have been killed, while an efficacy of 0% means that none of the caterpillars have been killed.

[3] = system: larvae of the mustard beetle (Phaedon cochleariae); test: Phaedon Larvae Test; format: in vivo; conditions: cabbage leaves dipped, 0.1 % by weight active compound; after 7 days
Experimental: as §1
Cabbage leaves (Brassica oleracea) are treated by being dipped into the preparation of active compound of the desired concentration and populated with larvae of the mustard beetle (Phaedon cochleariae) while the leaves are still moist.
After 7 days, the kill is determined and expressed in per cent. An efficacy of 100% means that all beetle larvae have been killed, while an efficacy of 0% means that no beetle larvae have been killed.

Venturia inaequalis = test: Venturia Test (Apple)/protective; format: in vivo; conditions: young apple plants sprayed at 100 g/ha, protective; evaluation 12 days after inoculation
Experimental: Venturia Test (Apple)/protective
as §1
To test for protective activity, young plants are sprayed with the preparation of active compound at the stated application rate. After the spray coating has dried on, the plants are inoculated with an aqueous conidia suspension of the causative organism of apple scab Venturia inaequalis and then remain in an incubation cabin at approximately 20° C. and 100% relative atmospheric humidity for 1 day.
The plants are then placed in a greenhouse at approximately 21° C. and a relative atmospheric humidity of approximately 90%.
Evaluation is carried out 12 days after the inoculation. 0% means an efficacy which corresponds to that of the control, while an efficacy of 100% means that no infection is observed.

Leptosphaeria nodorum = Leptosphaeria nodorum Test (Wheat)/protective; format: in vivo; conditions: young wheat plants sprayed at 250 g/ha, protective; evaluation 10 days after inoculation
Experimental: Leptosphaeria nodorum Test (Wheat)/protective
as §1
To test for protective activity, young plants are sprayed with the preparation of active compound at the stated application rate. After the spray coating has dried on, the plants are sprayed with a spore suspension of Leptosphaeria nodorum. The plants remain in an incubation cabin at 20° C. and 100% relative atmospheric humidity for 48 hours.
The plants are then placed in a greenhouse at a temperature of approximately 15° C. and a relative atmospheric humidity of 80%.
Evaluation is carried out 10 days after the inoculation. 0% means an efficacy which corresponds to that of the control, while an efficacy of 100% means that no infection is observed.

Row | Compound | Kill in % after 7 d [2] [%] | melting point | other results
1 | CCN(CC)Cc1ccc(CNC(=O)c2snc(Cl)c2Cl)cc1 [Example 14] | 100 | – | chromatographic logP [1]: 1.39
2 | Cc1ccc(NC(=O)c2snc(Cl)c2Cl)c(C)c1 | – | 171 to 172 °C | –
3 | CCC(CC)c1ccc(NC(=O)c2snc(Cl)c2Cl)cc1 | – | 98 to 99 °C | –
4 | CC(C)(C)c1ccc(NC(=O)c2snc(Cl)c2Cl)cc1 [Example 3] | – | 148 to 149 °C | Kill in % after 7 d [3]: 100%
5 | CN(C=O)CNC(=O)c1snc(Cl)c1Cl | – | 87 to 88 °C | –
6 | CC(C)(C)c1ccc(CCNC(=O)c2snc(Cl)c2Cl)cc1 [Example 4] | 100 | – | chromatographic logP [1]: 4.81
7 | O=C(NCCOS(=O)OCCNC(=O)c1snc(Cl)c1Cl)c1snc(Cl)c1Cl | – | 70 to 75 °C | –
8 | O=C(NCCc1cccc(Oc2ccc(Cl)cc2)c1)c1snc(Cl)c1Cl [Example 6] | – | – | chromatographic logP [1]: 4.79; Efficacy in % (Venturia inaequalis): 96%
9 | CC(C)(C)CSCc1ccc(NC(=O)c2snc(Cl)c2Cl)cc1 | – | 91 to 92 °C | –
10 | O=C(NCCc1ccc(-c2ccc(Cl)cc2)cc1)c1snc(Cl)c1Cl [Example 23] | 100 | 135 to 136 °C | –
11 | O=C(Nc1ccccc1-c1ccccc1)c1snc(Cl)c1Cl [Example 21] | 100 | 83 to 84 °C (dec.) | –
12 | O=C(Nc1ccccc1C1CCCCCC1)c1snc(Cl)c1Cl [Example 20] | 100 | 122 to 125 °C | –
13 | CCC(C)c1ccc(NC(=O)c2snc(Cl)c2Cl)cc1 (stereo not drawn) [Example 16] | – | 83 to 85 °C | Efficacy in % (Leptosphaeria nodorum): 81%
